Results from patent US10441669B2, “Multifunctional chelators, complexes, and compositions thereof, and methods of using same” (ILLINOIS INSTITUTE OF TECHNOLOGY, priority 2013, dated 2019).
Like-named read-outs stand apart in the source and are kept apart here. Values belong to the molecule of their own block, whether it stands above or below them.

What was measured:
[1] = In vitro serum stability of 90Y-radiolabeled 5p-C-NETA and NETA-RGD; conditions: 37° C., pH 7, 14 days, ITLC
Description: (§3) In vitro serum stability of 5p-C-NETA and NETA-RGD conjugates radiolabeled with ^90Y or ^177Lu was performed to determine if NETA chelators or NETA-RGD conjugates radiolabeled with ^90Y or ^177Lu remained stable without loss of ^90Y or ^177Lu in human serum. This was assessed by measuring the transfer of ^90Y or ^177Lu from the complex to serum proteins over the course of 14 days using ITLC. ^90Y or ^177Lu-radiolabeled complexes was prepared from the reactions of the bifunctional chelators with ^90Y or ^177Lu at room temperature and directly used for serum stability studies (37° C., pH 7).

[2] = In vitro serum stability of 177Lu-radiolabeled 5p-C-NETA and NETA-RGD; conditions: 37° C., pH 7, 14 days, ITLC
Description: as §3

[3] = In vitro serum stability of 90Y-radiolabeled 3p-C complexes; type: in vitro ADME; conditions: human serum, 37° C., in 72 h (3 days)
Description: (§1) A significant amount of the radioactivity from both ^90Y-3p-C-DEPA (4) and ^177Lu-3p-C-DEPA (4) was transchelated to serum (25% and 40% in 72 h, respectively). As expected, both ^90Y and ^177Lu complexes of 3p-C-NOTA […] were not stable in serum, and ˜80% of ^90Y and ˜36% of ^177Lu was released from the complexes on day 7. […] However, ^90Y-3p-C-NE3TA underwent rapid dissociation, losing ˜25% of ^90Y to serum in 3 days.
(§2) Human serum was purchased from Gemini Bioproducts (#100110). ^90Y- or ^177Lu-radiolabeled complexes (0.25M NH40OAc, pH 5.5) were prepared from the reaction of chelators with ^90Y or ^177Lu at room temperature or 37° C. Completion of radiolabeling was monitored by ITLC eluted, and the freshly prepared radiolabeled complexes were used for serum stability without further purification. ^90Y-3p-C-DETA, ^90Y-3p-C-NE3TA and ^90Y-3-C-NOTA were prepared by a reaction of 3p-C-DETA (1), 3p-C-NE3TA (2) and 3p-C-NOTA (3) (50 μg) with ^90Y (150 μCi) in 0.25 M NH4OAc buffer (pH 7.0). […] The stability of the radiolabeled complexes in human serum was evaluated at 37° C. over 14 days. The serum stability of the radiolabeled complexes was assessed by measuring the transfer of the radionuclide from each complex to serum proteins using ITLC eluted with CH3CN/H2O (3:2 v/v) or 20 mM EDTA in 0.15 M NH4OAc. […]

[4] = In vitro serum stability of 177Lu-radiolabeled 3p-C complexes; type: in vitro ADME; conditions: human serum, 37° C., in 72 h
Description: as §1, §2

[5] = In vitro serum stability of 64Cu-radiolabeled complexes of chelators A-F; type: in vitro ADME; conditions: human serum, over 2 days; listed as 64Cu-chelator E
Description: In vitro serum stability of the radiolabeled complexes was performed to determine if the chelators radiolabeled with ^64Cu remained stable without loss of the radioactivity in human serum. This was assessed by measuring the transfer of ^64Cu from the complex to human serum proteins using ITLC (20 mM EDTA in 0.15M NH4OAc, Table 2). ^64Cu-radiolabeled chelators were readily prepared from the reactions of the chelators with ^64Cu at room temperature. Essentially no unbound ^64Cu was detected in the reaction mixture at 2 h time point after the reaction at room temperature as determined by ITLC. The ^64Cu-radiolabeled chelators were directly used for serum stability studies (pH 7, 37° C.) without further purification. All ^64Cu-radiolabeled complexes remained intact in human serum for 2 days as evidenced by ITLC analysis (Supporting Information). […] A tiny amount of ^64Cu (<0.3%) was detected from other ^64Cu-complexes of chelators B, D-F.
The freshly prepared radiolabeled complexes were directly used for serum stability studies without further purification. ^64Cu-radiolabeled complex (85 μCi, 10 μL) was added to human serum (90 μL) in a microcentrifuge tube. The stability of ^64Cu-radiolabeled complexes in human serum was evaluated at 37° C. for 2 days. A solution of the radiolabeled complex in serum was withdrawn at the designated time points and evaluated by ITLC as described above.

[6] = EDTA challenge of 64Cu-radiolabeled complexes of chelators A-F; type: physicochemical; conditions: EDTA 100-fold molar excess; for Bound complex (%): 64Cu complex, 37° C.
Description: ^64Cu-radiolabeled complexes were further evaluated for complex stability based on EDTA challenge. ^64Cu-radiolabeled complexes were freshly prepared and treated with a solution of EDTA at a 100-fold molar excess, and the resulting solution (pH 5.5) was incubated at 37° C. for 24 h. […] Among the complexes tested, ^64Cu-radiolabeled pentadentate chelator B was least tolerant of EDTA treated, and most of ^64Cu was dissociated from the complex (˜80%) at 24 h time point. ^64Cu-radiolabeled chelator C containing the carbonyl donor group was found dissociated rapidly in the presence of the excess EDTA, and 50% of the activity was transchelated by EDTA at 1 h time point. ^64Cu-radiolabeled chelators D and F with the respective hydroxyl and thiophenyl donor group were slower in dissociation than ^64Cu-radiolabeled chelators B and C and released >45% of ^64Cu at 24 h time point. Dissociation of the activity from the ^64Cu-radiolabeled chelators was also measured using radio-HPLC at 25 h time point (FIG. 5). The peak related to ^64Cu-EDTA (tR=2.5 min) was clearly separated from bound ^64Cu complex of the chelators. ^64Cu-radiolabeled complex of polar chelators E and F have the respective retention time at […] and 6.2 min, while other ^64Cu-radiolabeled complexes have similar retention time (tR=7˜8 min). The ^64Cu-radiolabeled chelators C and D gave a small peak (tR=˜3 min and tR=˜7 min, respectively).
^64Cu-radiolabeled complexes were prepared by reaction of each chelator (20 μg) with ^64Cu (60 μCi) in 0.25M NH4OAc buffer (pH 5.5) for 2 h at room temperature. The radiolabeled complexes were prepared as described above and directly used for the experiments. ^64Cu-radiolabeled complex was mixed with EDTA at a 100-fold molar excess. The resulting mixture was incubated for 24 h at 37° C. The stability of ^64Cu-radiolabeled complexes in the solution was evaluated using ITLC (20 mM EDTA in 0.15M NH4OAc). A solution of the radiolabeled complex in serum (3˜20 μL) was withdrawn at the designated time points and evaluated by ITLC as described above. Stability of the complexes was also evaluated at 25 h time point by HPLC (solvent A: 0.1% TFA in H2O, solvent B: 0.1% TFA in CH3CN, 0-100% B/15 min, flow rate: 1 mL/min). ^64Cu-EDTA complex was eluted early (tR=˜2.5 min), while ^64Cu-radiolabeled complexes of chelators A-D, E, and F have the respective retention time (tR=7˜8 min, tR=4.6 min, and tR=6.2 min).

[7] = Stability and radioactivity level of 64Cu complexes in mice; type: in vivo; conditions: 64Cu complex
[8] = parameters: species or system mice; conditions: mouse, in vivo
[9] = pH 7
Description: as §3

[10] = pH 7; remark: listed apart in the source
Description: as §3

Compound: O=C(O)CN1CCN(CC(=O)O)CCN(CC(CCCCCc2ccc([N+](=O)[O-])cc2)N(CC(=O)O)CC(=O)O)CC1 (stereo not shown) [Chelator 5p-C-NETA, 2-({1-[4,7-bis(carboxymethyl)-1,4,7-triazonan-1-yl]-7-(4-nitrophenyl)heptan-2-yl}(carboxy-methyl)amino)acetic acid]
stability of 90Y complex in human serum [1]: remained stable in human serum without releasing the radioactivity into the serum
stability of 177Lu complex in human serum [2]: remained stable in human serum without releasing the radioactivity into the serum

90Y transchelated/lost to serum [3]: 25%
177Lu transchelated to serum [4]: 40%
Compound: O=C(O)CN1CCN(CC(=O)O)CCN(CC(CCCc2ccc([N+](=O)[O-])cc2)N(CC(=O)O)CC(=O)O)CCN(CC(=O)O)CC1 (stereo not shown) [Chelator 3p-C-DEPA]

64Cu dissociated/released from the complex in serum [5]: No measurable radioactivity was released
Bound complex (%) ([6]; pH 5.5, ITLC, 0 h): 99.7 ± 0.1%
Bound complex (%) ([6]; pH 5.5, ITLC, 1 h): 98.2 ± 0.3%
Bound complex (%) ([6]; pH 5.5, ITLC, 4 h): 92.6 ± 0.3%
Bound complex (%) ([6]; pH 5.5, ITLC, 19 h): 93.6 ± 0.1%
Bound complex (%) ([6]; pH 5.5, ITLC, 24 h): 94.3 ± 0.6%
Bound complex (%) ([6]; pH 5.5, radio-HPLC, 25 h): 93.1 ± 0.1%
64Cu activity dissociated from the complex / transferred to EDTA ([6]; 24 h time point): ~5%
Compound: O=C(O)CN1CCN(CC(=O)O)CCN(Cc2ccccn2)CC1 [Chelator E, 2-[4-(carboxymethyl)-7-(pyridin-2-ylmethyl)-1,4,7-triazonan-1-yl]acetic acid]
stability in mice and radioactivity level in blood and normal organs [7]: stable in mice and displayed low radioactivity level in the blood and the normal organs

Compound: N=C(N)NCCC[C@@H]1NC(=O)[C@H](CCCCNC(=S)Nc2ccc(CCCCCC(CN3CCN(CC(=O)O)CCN(CC(=O)O)CC3)N(CC(=O)O)CC(=O)O)cc2)NC(=O)[C@@H](Cc2ccc(O)cc2)NC(=O)[C@H](CC(=O)O)NC(=O)CNC1=O (stereo partly shown) [5p-C-NETA-RGD]
tumor targeting and biodistribution profile [8]: target tumors in mice and produced a favorable biodistribution profile with rapid blood clearance and low organ uptake
stability of 90Y complex in human serum [9]: remained quite stable in human serum over 2 weeks period
stability of 177Lu complex in human serum [10]: remained quite stable in human serum over 2 weeks period
